Results as given in patent publication US5686454A, “Camphorcarbonyl” (Merck & Co., Inc., priority 1996, dated 1997).
Like-named read-outs stand apart in the source and are kept apart here.

Molecular target: T1, uterine OT receptors (Rattus norvegicus, UniProt P70536)
T1 construct: crude membrane preparation of uteri; from tissue; host or cells: uterus of DES-treated rats, crude membranes
T1 sequence (P70536 1-388): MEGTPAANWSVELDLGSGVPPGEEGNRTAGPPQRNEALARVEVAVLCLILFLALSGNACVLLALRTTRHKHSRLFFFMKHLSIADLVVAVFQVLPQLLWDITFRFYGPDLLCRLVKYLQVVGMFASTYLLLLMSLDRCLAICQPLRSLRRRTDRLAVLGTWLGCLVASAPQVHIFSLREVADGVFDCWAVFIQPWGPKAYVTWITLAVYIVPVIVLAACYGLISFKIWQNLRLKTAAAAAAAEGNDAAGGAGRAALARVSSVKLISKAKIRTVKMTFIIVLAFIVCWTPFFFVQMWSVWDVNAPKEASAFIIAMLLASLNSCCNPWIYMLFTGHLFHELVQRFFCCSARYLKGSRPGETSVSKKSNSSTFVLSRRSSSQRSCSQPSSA
Experiment: Radioligand binding: competition of [^3 H]oxytocin binding to rat uterine membranes
Conditions: for IC50: rat uterus membranes, 60 minutes, 22° C., pH 7.4; for inhibition at 1 µM: read-out: % inhibition at 1000 nM
Text: RADIOGLIGAND BINDING ASSAYS
The high affinity binding of [^3 H]

Row | Structure (SMILES) | IC50 (1 nM [^3 H]OT, read-out: IC50) [nM] | further results
1 | Cc1ccccc1N1CCN(S(=O)(=O)CC23CCC(CC2NC(=O)[C@@H](N)CCS(C)(=O)=O)C3(C)C)CC1 (stereo partly drawn) [Example 72, 1-((7,7-Dimethyl-2-endo-(2S-amino-4-(methylsulfonyl)-butyramido)bicyclo(2.2.1)heptan-1-yl)methanesulfonyl)-4-(2-methylphenyl)piperazine] | 1.2 | –
2 | Cc1ccccc1N1CCN(S(=O)(=O)CC23CCC(CC2=O)C3(C)C)C(C)C1=O (centres unmarked) [Example 67, 1-((7,7-Dimethyl-2-oxo-bicyclo(2.2.1)heptan-1-yl)-methanesulfonyl)-4-(2-methylphenyl)-2-methyl-3-piperazinone] | – | inhibition at 1 µM: 37%
3 | CC(=O)NC1C(C(=O)N2CCN(c3ccccc3C)CC2)C2CCC1(C)C2(C)C (centres unmarked) [Example 14, 1-(2-methylphenyl)-4-[(4,7,7-trimethyl-3-acetylaminobicyclo[2.2.1]hept-2-yl)carbonyl]-piperazine] | 55 | –
4 | Cc1ccccc1N1CCN(C(=O)C2C3CCC(C)(C2NC(=O)[C@@H]2CCCN2)C3(C)C)CC1 (some centres unmarked) [Example 15, 1-(2-methylphenyl)-4-[(4,7,7-trimethyl-3-prolylaminobicyclo[2.2.1]hept-2-yl)carbonyl]-piperazine] | 60 | –
5 | Cc1ccccc1N1CCN(S(=O)(=O)CC23CCC(CC2N(C)C(=O)[C@H](CCS(C)(=O)=O)N(C)C)C3(C)C)CC1 (stereo partly drawn) [Example 78, 1-((7,7-Dimethyl-2-endo-methyl(2S-dimethylamino-4-(methylsulfonyl)butanoyl)amino-bicyclo(2.2.1)heptan-1-yl)methanesulfonyl)-4-(2-methylphenyl)-piperazine] | 110 | –
6 | COC(=O)C1CC2CCC1(CS(=O)(=O)N1CCN(c3ccccc3C)CC1)C2(C)C (stereo not drawn) [Example 59, 1-((7,7-Dimethyl-2-endo-methoxycarbonyl-bicyclo-(2.2.1)heptan-1-yl)methanesulfonyl)-4-(2-methyl-phenyl)piperazine] | 260 | –
7 | COC(=O)CCN(CCC(=O)OC)CC(C)[C@@]1(O)C[C@H]2CC[C@]1(CS(=O)(=O)N1CCN(c3ccccc3C)CC1)C2(C)C (stereo partly drawn) [Example 47, 1-((7,7-dimethyl-2-exo-hydroxy-2-endo-2-(1-bis-(2-methoxycarbonylethyl)amino)propyl-bicyclo(2.2.1)heptan-1-yl)methanesulfonyl)-4-(2-methylphenyl)piperazine] | 54 | –
8 | CCOC(=O)CN1CCCC(C(=O)NCC(C)C2(O)CC3CCC2(CS(=O)(=O)N2CCN(c4ccccc4C)CC2)C3(C)C)C1 (stereo not drawn) [Example 86, 1-((7,7-Dimethyl-2-exo-hydroxy-2-endo-2-(1-(3-(1-ethoxycarbonylmethyl)piperidinylcar-bonyl)amino)propyl-bicyclo(2.2.1)heptan-1-yl)methanesulfonyl)-4-(2-methylphenyl)piperazine] | 38 | –
9 | Cc1ccccc1N1CCN(S(=O)(=O)CC23CCC(CC2(O)C(C)CNC(=O)[C@@H]2CCCN2CCC(=O)O)C3(C)C)CC1 (stereo partly drawn) [Example 82, 1-((7,7-Dimethyl-2-exo-hydroxy-2-endo-2-(1-(1-N-(carboxyethyl)prolyl)amino)propyl-bicyclo(2.2.1)-heptan-1-yl)methanesulfonyl)-4-(2-methylphenyl)piperazine] | 15 | –
10 | Cc1ccccc1N1CCN(S(=O)(=O)C[C@]23CC[C@H](C[C@]2(O)C(C)CNC(=O)C2CN4CCC2CC4)C3(C)C)CC1 (stereo partly drawn) [Example 44, 1-((7,7-Dimethyl-2-exo-hydroxy-2-endo-2-(1-(quinuclidin-3-yl-carbonyl)amino)propyl-bicyclo(2.2.1)heptan-1-yl)methanesulfonyl)-4-(2-methylphenyl)piperazine] | – | IC50 (IC50, 1 nM [^3 H]OT): 18 nM
11 | COC(=O)CCN1CCC[C@H]1C(=O)NCC(C)C1(O)CC2CCC1(CS(=O)(=O)N1CCN(c3ccccc3C)CC1)C2(C)C (stereo partly drawn) [Example 81, 1-((7,7-Dimethyl-2-exo-hydroxy-2-endo-2-(1-(1--N -(methoxycarbonylethyl)prolyl)amino)propylbicyclo-(2.2.1)heptan-1-yl)methanesulfonyl)-4-(2-methyl-phenyl)piperazine] | 20 | –
12 | Cc1ccccc1N1CCN(C(=O)C2C3CCC(C)(C2NC(=O)C(N)C(C)O)C3(C)C)CC1 (centres unmarked) [Example 20, 1-(2-methylphenyl)-4-[(4,7,7-trimethyl-3-(2-amino-3-hydroxy)butyrylaminobicyclo[2.2.1]hept-2-yl)carbonyl]-piperazine] | 3.6 | –
13 | CCOC(=O)C(CC=C1CC2CCC1(CS(=O)(=O)N1CCN(c3ccccc3C)CC1)C2(C)C)(NC(C)=O)C(=O)OCC (centres unmarked) [Example 64, 1-((7,7-Dimethyl-2-(3-acetamido-3,3'-di(ethoxycarbonyl))propylidine-bicyclo(2.2.1)heptan-1-yl)methanesulfonyl)-4-(2-methylphenyl)piperazine] | – | inhibition at 1 µM: 78%
14 | Cc1ccccc1N1CCN(C(=O)C2C3CCC(C)(C2NC(=O)C(CCS(C)(=O)=O)NC(=O)OC(C)(C)C)C3(C)C)CC1 (stereo not drawn) [Example 11, 1-(2-methylphenyl)-4-[(4,7,7-trimethyl-3-endo-(4-methylsulfonyl-2-t-butoxycarbonylamino)butanoylaminobicyclo[2.2.1]hept-2-endo-yl)carbonyl]-piperazine] | 1100 | –
15 | Cc1ccccc1N1CCN(S(=O)(=O)CC23CCC(CC2(O)C(C)CNC(=O)C2CCCNC2)C3(C)C)CC1 (stereo not drawn) [Example 83, 1-((7,7-Dimethyl-2-exo-hydroxy-2-endo-2-(1-(3-piperidinylcarbonyl)amino)propyl-bicyclo(2.2.1)heptan-1-yl)methanesulfonyl)-4-(2-methylphenyl)piperazine] | 30 | –
16 | Cc1ccccc1N1CCN(C(=O)C2C3CCC(C)(C2NC(=O)C(N)CCS(C)(=O)=O)C3(C)C)CC1 (stereo not drawn) [Example 10, 1-(2-methylphenyl)-4-[(4,7,7-trimethyl-3-exo-(4-methylsulfonyl-2-amino)butanoylaminobicyclo[2.2.1]hept-2-endo-yl)carbonyl]-piperazine] | – | inhibition at 1 µM: 75%
17 | Cc1ccccc1N1CCN(C(=O)C2C3CCC(C)(C2NC(=O)Cc2c[nH]cn2)C3(C)C)CC1 (centres unmarked) [Example 13, 1-(2-Methylphenyl)-4-[(4,7,7-trimethyl-3-(2-(4-imidazolyl))acetylaminobicyclo[2.21]hept-2-yl)carbonyl]-piperazine] | 33.3 | –
18 | Cc1ccccc1N1CCN(S(=O)(=O)CC23CCC(CC2C(=O)NCCc2c[nH]cn2)C3(C)C)CC1 (stereo not drawn) [Example 61, 1-((7,7-Dimethyl-2-endo-(4-imidazolyl)ethylamino-carbonyl-bicyclo-(2.2.1)heptan-1-yl)methanesulfonyl)-4-(2-methylphenyl)piperazine] | 35 | –
19 | Cc1ccccc1N1CCN(C(=O)C2C3CCC(C)(C2NC(=O)C(NC(=O)OC(C)(C)C)C(C)O)C3(C)C)CC1 (centres unmarked) [Example 19, 1-(2-methylphenyl)-4-[(4,7,7-trimethyl-3-(2-(t-butoxycarbonyl)amino-3-hydroxy)butyrylaminobicyclo[2.2.1]hept-2-yl)carbonyl]-piperazine] | 160 | –
20 | Cc1ccccc1N1CCN(S(=O)(=O)C[C@]23CC[C@H](C[C@]2(O)C(C)CNC(=O)[C@@H]2CCCN2CCCC(=O)O)C3(C)C)CC1 (stereo partly drawn) [Example 42, 1-((7,7-Dimethyl-2-exo-hydroxy-2-endo-2-(1-(1-N-(3-carboxypropyl)prolyl)amino)propyl-bicyclo(2.2.1)heptan-1-yl)methanesulfonyl)-4-(2-methylphenyl) piperazine] | 10 | –
